# Reference: patent US20230346777A1, “USE OF SGC ACTIVATORS FOR THE TREATMENT OF OPHTHALMOLOGIC DISEASES” (Bayer Aktiengesellschaft, priority 2020, published 2023)
# Where a name gives a salt, the structure may show the parent alone. Read-outs that look alike come from different tables or passages of the source.
# Legend:
# [1] = Pharmacokinetic parameters following intravenous and oral administration in rats; assay type: in vivo, male Wistar rats; settings: for clearance / MRT / half-life: male, Wistar, rat, plasma; for clearance: read-out: CLplasma (converted); for MRT: read-out: MRT; for half-life: read-out: t½ (converted)
# Protocol: (§1) B-2. Determination of Pharmacokinetic Parameters Following Intravenous and Oral Administration
# (§2) The pharmacokinetic parameters of the compounds according to the invention were determined in male Wistar rats and/or in female beagles and/or in cynomolgus monkeys and/or in male CD-1 mice. Intravenous administration in the case of mice and rats was carried out by means of a species-specific plasma/DMSO formulation, and in the case of dogs and monkeys by means of a water/PEG400/ethanol formulation. In all species, oral administration of the dissolved substance was performed via gavage, based on a water/PEG400/ethanol formulation.
# (§3) An internal standard (which may also be a chemically unrelated substance) was added to the samples of the compounds of the invention, calibration samples and qualifiers, and there followed protein precipitation by means of acetonitrile in excess. Addition of a buffer solution matched to the LC conditions, and subsequent vortexing, was followed by centrifugation at 1000 g. The supernatant was analysed by LC-MS/MS using C18 reversed-phase columns and variable mobile phase mixtures. The substances were quantified via the peak heights or areas from extracted ion chromatograms of specific selected ion monitoring experiments.
# (§4) The plasma concentration/time plots determined were used to calculate the pharmacokinetic parameters such as AUC, Cmax, t1/2 (terminal half-life), F (bioavailability), MRT (mean residence time) and CL (clearance), by means of a validated pharmacokinetic calculation program.
# (§5) Since the substance quantification was performed in plasma, it was necessary to determine the blood/plasma distribution of the substance in order to be able to adjust the pharmacokinetic parameters correspondingly.
# (§6) For this purpose, a defined amount of substance was incubated in K3 EDTA whole blood of the species in question in a rocking roller mixer for 20 min. After centrifugation at 1000 g, the plasma concentration was measured (by means of LC-MS/MS; see above) and determined by calculating the ratio of the Cblood/Cplasma value.
# [2] = molecular target: T1, recombinant guanylate cyclase reporter cell line (Rattus norvegicus, UniProt P20595); test: Effect on a recombinant guanylate cyclase reporter cell line; assay type: cell-based
# T1 construct: expressed in transfected cells; CHO by own knowledge of the cited Wunder et al. 2005
# T1 sequence (P20595 1-619): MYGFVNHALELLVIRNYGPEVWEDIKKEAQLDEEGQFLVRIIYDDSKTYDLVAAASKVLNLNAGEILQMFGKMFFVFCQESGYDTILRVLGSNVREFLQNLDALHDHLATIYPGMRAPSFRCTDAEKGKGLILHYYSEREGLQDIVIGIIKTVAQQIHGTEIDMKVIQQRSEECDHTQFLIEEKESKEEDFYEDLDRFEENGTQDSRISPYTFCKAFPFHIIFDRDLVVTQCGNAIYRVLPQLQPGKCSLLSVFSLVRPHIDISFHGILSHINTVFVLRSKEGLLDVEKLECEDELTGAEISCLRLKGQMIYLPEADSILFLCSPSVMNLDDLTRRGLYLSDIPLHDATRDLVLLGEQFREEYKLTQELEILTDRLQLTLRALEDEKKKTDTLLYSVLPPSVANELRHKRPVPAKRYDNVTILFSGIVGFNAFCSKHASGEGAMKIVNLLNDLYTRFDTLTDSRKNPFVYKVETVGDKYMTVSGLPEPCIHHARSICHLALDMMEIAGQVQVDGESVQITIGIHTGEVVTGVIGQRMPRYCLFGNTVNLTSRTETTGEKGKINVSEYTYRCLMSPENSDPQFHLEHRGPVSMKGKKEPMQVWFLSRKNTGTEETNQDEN
# T1 sequence (P19686 1-690 partner): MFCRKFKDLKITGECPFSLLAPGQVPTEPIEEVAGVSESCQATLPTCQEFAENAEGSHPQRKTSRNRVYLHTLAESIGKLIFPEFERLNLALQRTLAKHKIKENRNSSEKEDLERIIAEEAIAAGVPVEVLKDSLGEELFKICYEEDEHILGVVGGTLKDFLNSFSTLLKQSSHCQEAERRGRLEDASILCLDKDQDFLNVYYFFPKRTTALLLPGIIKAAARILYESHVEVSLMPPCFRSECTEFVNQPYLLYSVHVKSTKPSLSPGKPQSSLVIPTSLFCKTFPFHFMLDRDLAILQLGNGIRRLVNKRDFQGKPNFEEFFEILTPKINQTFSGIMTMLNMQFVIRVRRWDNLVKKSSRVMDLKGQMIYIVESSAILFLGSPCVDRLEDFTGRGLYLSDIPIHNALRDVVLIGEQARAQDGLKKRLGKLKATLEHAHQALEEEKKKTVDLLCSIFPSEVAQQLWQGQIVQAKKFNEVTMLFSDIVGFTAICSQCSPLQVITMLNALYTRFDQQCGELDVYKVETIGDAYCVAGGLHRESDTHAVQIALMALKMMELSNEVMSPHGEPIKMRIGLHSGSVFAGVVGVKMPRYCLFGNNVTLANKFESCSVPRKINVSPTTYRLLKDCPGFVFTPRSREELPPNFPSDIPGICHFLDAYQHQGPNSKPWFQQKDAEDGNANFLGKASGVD
# Protocol: B-1. Effect on a Recombinant Guanylate Cyclase Reporter Cell Line
# The cellular activity of the compounds according to the invention was determined using a recombinant guanylate cyclase reporter cell line, as described in F. Wunder et al., Anal. Biochem. 339, 104-112 (2005).
# [3] = Pharmacokinetic parameters following intravenous and oral administration in dogs; assay type: in vivo, female beagles; settings: for MRT / clearance / half-life: female, beagle, dog, plasma; for clearance: read-out: CLplasma (converted); for half-life: read-out: t½ (converted)
# Protocol: as §1, §2, §3, §4, §5, §6
# [4] = intravenous administration (i.v.)
MEC (minimum effective concentration) ([2]; hydrochloride) [nM],SMILES,AUCnorm ([1]; intravenous administration) [kg·h/L],"clearance ([1]; iv, intravenous administration) [mL/min/kg]","MRT ([1]; iv, intravenous administration) [h]","half-life ([1]; iv, intravenous administration) [h]","MRT ([1]; po, oral administration (p.o.)) [h]","half-life ([1]; po, oral administration (p.o.)) [h]",AUCnorm ([1]; oral administration (p.o.)) [kg·h/L],F ([1]; oral administration (p.o.)) [%],EC50 [2] [nM],MEC (minimum effective concentration) [2] [nM],"MRT [3, 4] [h]","clearance [3, 4] [mL/min/kg]","half-life [3, 4] [h]",MRT ([3]; oral administration (p.o.)) [h],half-life ([3]; oral administration (p.o.)) [h],"AUCnorm [3, 4] [kg·h/L]",AUCnorm ([3]; oral administration (p.o.)) [kg·h/L],F ([3]; oral administration (p.o.)) [%]
–,"CC(C)CN1CCN(c2ccc(-c3ccc(Cl)cc3N3CCC[C@@H](n4ncc(C(=O)O)c4C(F)F)C3)cc2)CC1 (single isomer, unassigned) [Example 2, 1-[1-{4-Chloro-4′-[4-(2-methylpropyl)piperazin-1-yl][1,1′-biphenyl]-2-yl}piperidin-3-yl]-5-(difluoromethyl)-1H-pyrazole-4-carboxylic acid]",7.08,2.33,3.44,3.13,6.23,3.96,3.77,53.3,8.6,1.0,25.6,0.167,17.7,21.3,14,81.7,67.7,82.8
2.2,"CC(C)CN1CCN(c2ccc(-c3ccc(Cl)cc3N3CCCC(n4ncc(C(=O)O)c4C(F)(F)F)C3)cc2)CC1 (single isomer, unassigned) [Example 9, 1-[1-{4-chloro-4′-[4-(2-methylpropyl)piperazin-1-yl][1,1′-biphenyl]-2-yl}piperidin-3-yl]-5-(trifluoromethyl)-1H-pyrazole-4-carboxylic acid hydrochloride]",5.48,3,5.83,4.1,8.51,4.96,4.50,82.1,11,–,10.3,0.5,7.86,13.7,9.28,37.4,31.7,84.8
